Patent publication US6447767B1, “Non-myeloablative tolerogenic treatment” (Hadasit Medical Research Services and Development Ltd., priority 1997, dated 2002)
Values joined by “and” are separate entries in the source; they are usually repeats but may differ in a detail not shown here. Identical values can stand only once. Like-named read-outs stand apart in the source and are kept apart here.

Tests used:
[1] = tested on: Lewis rat skin xenografts
Protocol: The basic protocol for conditioning prior to transplantation included sTLI (1-6 daily exposures of 200 cGy) to a total dose of up to 1,200 cGy, followed by intravenous inoculation with 3×10^7 BMC on the day after the last TLI dose. […] One day after BMC infusion, experimental mice were injected with 200 mg/kg Cy (Taro, Israel) intraperitoneally. Cy was freshly dissolved in sterile phosphate-buffered saline prior to injection. […] A second infusion of donor, after Cy, was also administered in some of the mice.
Skin grafting was carried out 20 days after completion of the tolerogenic treatment. A full-thickness skin graft measuring 1 cm×1 cm was adjusted to the graft bed by 4 Thomas surgery clips (Thomas Scientific, USA). The panniculus camosus was kept intact in the graft bed. The graft was considered to be accepted when hair of donor color grew on the soft flexible underlying skin, and rejected when donor epithelium was lost.
Two groups of mice were administered sTLI of 6 fractions of 200 cGy/day. After sTLI conditioning, both groups were administered 30×10^6 non-T cell depleted Lewis rat BMC intravenously. The first group was given a single dose of 200 mg/kg Cy the next day. Another 3×10^7 non T cell depleted rat BMC were administered the following day. In the second group, a dose of 60 mg/kg Cy was given daily for 3 days in contrast to the single 200 mg/kg dose given the first group. The first dose of Cy was given 10 hours after the first rat BMC inoculation, the second dose at 24 hours and the third dose at 48 hours (see below). After administration of three doses of 60 mg/kg Cy, a second inoculation of 3×10^7 non T cell depleted rat BMC were administered.

[2] = tested on: metastatic solid tumors / lymphoma; assay: AlloCT with rIL-2 activated mismatched lymphocytes plus tumor-specific antibodies (case reports); type: in vivo, human; details: single patients; antibody given with rIL-2 activated haploidentically mismatched lymphocytes
Text: Donor-derived anti-cancer effector lymphocytes consisted of rIL-2 activated cells (four days activation with rIL-26,000 IU/ml) or using donor lymphocytes activated in vitro against irradiated tumor cells or host alloantigens in one way mixed lymphocyte tumor reaction or using donor lymphocytes pre-cultured with irradiated parental or other family member expressing either one of the patient's haplotypes in one way mixed lymphocyte cultures (in order to induce effector cells against inherited paternal or maternal haplotypes, to maximize anti-host alloreactivity to be used as adoptive allogeneic cell therapy (alloCT). In order to maximize anti-cancer effects, patients can be immunosuppressed with Fludarabine 25 mg/m^2×5 days. […] Following cell infusion, patients receive subcutaneously rIL-2 6×10^6 IU/m^2 in an attempt to continue to activate in vivo donor anti-tumor reactive lymphocytes. Two weeks post cell therapy, patient may receive injections of alpha interferon 3×10^6 IU every other day subcutaneously as anti-proliferative and mostly as anti-angiogenic effects to minimize or jeopardize tumor cell growth from residual tumor cells escaping alloCT.
The alloCT course was done according to the scheme described.
Both cycles of alloCT were followed with SC injections of r-IL2 6×10^6 IU for five days.

[3] = tested on: K562 target cells; assay: 51Cr-release lysis by killer cells generated from human PBMC with rIL-2; type: cell-based
Protocol: (§1) Percent lysis was calculated by the following formula: [formula]

[4] = tested on: Daudi target cells; assay: as above; type: cell-based
Protocol: as §1

[5] = GVHD induction by B6 spleen cells in sublethally irradiated BALB/c mice; type: in vivo; details: B6 spleen cells 30 min with 100 μg/ml, 25×10^6 per mouse, BALB/c 600 cGy (FIG. 21)
Protocol: (§2) Recipients were monitored for survival and clinical signs of GVHD such as ruffled fur, diarrhea, and measurable weight loss. […], samples of liver and lung sections were obtained form each mouse to test for histological evidence of GVHD. Histological preparations were analyzed by an independent pathologist on a double blind basis.
(§3) In parallel murine experiments, culture of B6 bone marrow for 30 minutes with ASTA-Z (100 μg/ml) prior to injection (25×10^6 per mouse) into lethally irradiated (1,100 cGy of TBI) SJL/J mice reduced the capacity of the bone marrow cells to induce GVHD (FIG. 20). Similarly, culture of B6 spleen cells for 30 minutes with ASTA-Z (100 μg/ml) prior to injection (25×10^6 per mouse) into sublethally irradiated BALB/c mice (600 cGy) reduced the capacity of the spleen cells to induce GVHD (FIG. 21).

[6] = tested on: BALB/c mouse spleen cells; assay: Mitogen-induced T cell proliferation ([3H]-thymidine incorporation); type: cell-based
Protocol: Mitogen-induced T cell proliferative responses were measured by culturing spleen cells in the presence of the T cell mitogens concanavalin A (ConA, 10 μg/ml) or phytohemagglutinin (PHA, 1 μg/ml) for three days. [^3H]-thymidine was added to the cultures for the last 6 hours of culture and T cell proliferation was measured in terms of counts per minute (cpm) of [^3H]-thymidine incorporated into the DNA of the cells using cell harvesting and radioactivity techniques known to those in the art.
BALB/c spleen cells were cultured for 30 minutes at 37° C. in tissue culture medium containing 100 μg/ml of ASTA-Z and then tested for in vitro T cell responses.

[7] = GVHD induction by B6 bone marrow in lethally irradiated SJL/J mice; type: in vivo; details: B6 BM 30 min with 100 μg/ml, 25×10^6 per mouse, SJL/J 1,100 cGy TBI (FIG. 20)
Protocol: as §2, §3

[8] = tested on: murine P815 tumor target cells; details: BALB/c SP or BM cells, ASTA-Z then rIL-2 6,000 IU/ml 4 days (FIG. 19)
Protocol: (§4) Human peripheral blood mononuclear cell (PBMC) and murine spleen or bone marrow populations were tested for their ability to lyse NK-sensitive target cells (human K562 and murine YAC-1 cells) and NK-resistant, activated NK-sensitive target cells (human Daudi and murine P815 cells) using standard ^51Cr-release assays. Briefly, ^51 Cr-labeled target cells were incubated at 37° C. with PBMC effector cells at various target cell to effector cell ratios for 4 hours. At the end of the incubation, the cells were pelleted by centrifugation and equal aliquots of supernatant were removed from each assay culture well and counted for radioactivity. Percent lysis was calculated by the following formula: [formula]
(§5) They were then harvested and tested for cytolytic activity in standard ^51Cr-release assays. While YAC-1 cells are sensitive to lysis by both NK and activated NK cells, P815 cells are not sensitive to lysis by NK cells but are sensitive to activated NK cells. […] While K562 cells are sensitive to lysis by both NK and activated NK cells, Daudi cells are not sensitive to NK cells but are sensitive to activated NK cells.

[9] = tested on: murine YAC-1 tumor target cells; details: BALB/c SP or BM cells, ASTA-Z then rIL-2 6,000 IU/ml 4 days (FIG. 18)
Protocol: as §4, §5

[10] = sTLI, rat BMC, single 200 mg/kg Cy, second rat BMC
[11] = ASTA-Z treated PBMC cultured with IL-2 6,000 IU/ml, target:effector 1:100
[12] = human PBMC, ASTA-Z then rIL-2 6,000 IU/ml 4 days

With `O=P1(N(CCCl)CCCl)NCCCO1` (centres unmarked) [Cy, cyclophosphamide] the “recipients that developed lethal GVHD” value ([1]; Cy 3 × 60 mg/kg, of the 15 recipients that accepted xenografts) was 5, the “Skin Graft Acceptance” value ([1]; sTLI, rat BMC, Cy 60 mg/kg at 10 h, 24 h, 48 h, second rat BMC) was 15 of 20 and 15/20 and the “Lethal GVHD” value [1, 10] was “in most of the recipients”. For the same molecule, the “Skin Graft Acceptance” value [1, 10] was 0/6 and the “Skin Xenograft Survival Time” value [1, 10] was under 20 days.

With “MabThera: monoclonal anti-CD20 antibodies” the clinical outcome [2] was “no evidence of disease”.

For mafosphamide [ASTA-Z], the “Lysis of K562 target cells (percentage of 51Cr released)” value [3, 11] was 52% and 48%, the “generation of killer cells capable of killing K562 target cells” value [3, 12] was “did not decrease” and the “Lysis of Daudi target cells (percentage of 51Cr released)” value [4, 11] was 42% and 71%. The “generation of killer cells capable of killing Daudi target cells” value [4, 12] was “did not decrease”, the “capacity of the spleen cells to induce GVHD” value [5] was “reduced” and the “in vitro proliferative responses to the T cell mitogens ConA and PHA” value ([6]; 100 μg/ml, 30 minutes, 37°C) was “elimination”. The “Cell Proliferation, Con-A” value ([6]; BALB/c spleen cells, ASTA-Z 100 μg/ml 30 min 37°C and/or IL-2 1,000 IU/ml, ConA 10 μg/ml) was 2,980 cpm, the “Cell Proliferation, PHA” value ([6]; BALB/c spleen cells, ASTA-Z 100 μg/ml 30 min 37°C and/or IL-2 1,000 IU/ml, PHA 1 μg/ml) was 5,118 cpm and the “Cell Proliferation, No Mitogens” value ([6]; BALB/c spleen cells, ASTA-Z 100 μg/ml 30 min 37°C and/or IL-2 1,000 IU/ml, no mitogen) was 219 cpm. For the same molecule, the “effect of added IL-2 on inhibition of responsiveness to the mitogens” value ([6]; IL-2 1,000 IU/ml added to cultures of spleen cells and ASTA-Z) was “did not overcome inhibition”, the “capacity of the bone marrow cells to induce GVHD” value [7] was “reduced” and the “generation of killer cells capable of killing P815 target cells” value [8] was “did not decrease”. The “generation of killer cells capable of killing YAC-1 target cells” value [9] was “did not decrease”.

B1: Panorex: anti-epithelial cell antibodies, anti-17A (antibody, chains of the INN, looked up, V domains shown)
VH: QVQLQQSGAELVRPGTSVKVSCKASGYAFTNYLIEWVKQRPGQGLEWIGVINPGSGGTNYNEKFKGKATLTADKSSSTAYMQLSSLTSDDSAVYFCARDGPWFAYWGQGTLVTVSA
VL: NIVMTQSPKSMSMSVGERVTLTCKASENVVTYVSWYQQKPEQSPKLLIYGASNRYTGVPDRFTGSGSATDFTLTISSVQAEDLADYHCGQGYSYPYTFGGGTKLEIK
For B1, the clinical outcome [2] was “no evidence of disease”.
